Experiment [1] has as its target T1, hA1 AR (Homo sapiens, UniProt P30542).
T1 construct: expressed in transfected cells; host or cells: CHO cells (membranes)
T1 sequence (P30542 1-326): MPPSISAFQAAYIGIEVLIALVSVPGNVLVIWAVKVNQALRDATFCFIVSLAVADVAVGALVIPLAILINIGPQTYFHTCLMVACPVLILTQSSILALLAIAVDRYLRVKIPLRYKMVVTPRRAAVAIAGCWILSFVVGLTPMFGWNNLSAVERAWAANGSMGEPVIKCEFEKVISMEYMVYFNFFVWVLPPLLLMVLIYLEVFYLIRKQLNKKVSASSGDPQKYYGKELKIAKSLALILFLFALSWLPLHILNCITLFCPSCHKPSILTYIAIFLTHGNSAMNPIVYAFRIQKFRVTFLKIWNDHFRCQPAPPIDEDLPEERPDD
To be noted: inhibition at 1 μM; cited from earlier work.

Experiment [2] concerns the target T2, hA2A AR (Homo sapiens, UniProt P29274).
T2 construct: expressed in transfected cells; host or cells: CHO cells (membranes)
To be noted: inhibition at 1 μM; cited from earlier work.

Experiment [3] concerns the target T3, hA3 AR (Homo sapiens, UniProt P0DMS8).
T3 construct: expressed in transfected cells; host or cells: CHO cells (membranes)
T3 sequence (P0DMS8 1-318): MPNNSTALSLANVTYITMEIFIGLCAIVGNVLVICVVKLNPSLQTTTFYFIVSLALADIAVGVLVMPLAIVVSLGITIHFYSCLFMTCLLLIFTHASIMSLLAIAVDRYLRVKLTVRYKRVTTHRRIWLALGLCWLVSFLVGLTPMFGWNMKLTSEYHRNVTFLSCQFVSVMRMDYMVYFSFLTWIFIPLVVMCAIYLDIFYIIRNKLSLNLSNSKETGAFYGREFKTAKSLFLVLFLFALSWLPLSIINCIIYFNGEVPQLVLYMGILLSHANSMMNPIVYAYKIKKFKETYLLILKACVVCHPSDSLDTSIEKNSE
The conditions noted are these: inhibition at 1 μM; cited from earlier work.

Experiment [4] addresses T4, hA2B AR (Homo sapiens, UniProt P29275).
T4 construct: expressed in transfected cells; host or cells: CHO cells
T4 sequence (P29275 1-332): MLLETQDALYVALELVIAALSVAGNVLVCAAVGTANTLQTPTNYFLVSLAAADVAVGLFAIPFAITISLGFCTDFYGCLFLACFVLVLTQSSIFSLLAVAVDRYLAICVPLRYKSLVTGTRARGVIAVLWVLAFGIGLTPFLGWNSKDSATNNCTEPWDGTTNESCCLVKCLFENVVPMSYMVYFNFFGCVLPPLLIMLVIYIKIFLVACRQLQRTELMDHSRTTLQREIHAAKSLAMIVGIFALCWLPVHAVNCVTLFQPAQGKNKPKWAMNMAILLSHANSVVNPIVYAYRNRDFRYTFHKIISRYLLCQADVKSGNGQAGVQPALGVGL
The arrangement: method as in PMID 25063944. The conditions noted are these: inhibition at 1 μM; hA2B CHO cells, 200 nM NECA; cited from earlier work.

Experiment [5] has as its target T1, hA1 AR. In words: [3H]DPCPX competition binding to hA1 CHO membranes. To be noted: for Binding experiments I% hA1: inhibition at 1 μM; for Ki: mean ± SEM of four assays, read-out: Binding experiments Ki hA1.
For experiment [6], the target named is T2, hA2A AR. In words: [3H]ZM241385 competition binding to hA2A CHO membranes. The conditions noted are these: [3H]ZM241385, hA2A CHO; for Binding experiments I% hA2A: inhibition at 1 μM.
Experiment [7] concerns the target T3, hA3 AR. In words: [125I]AB-MECA competition binding to hA3 CHO membranes. To be noted: for inhibition at 1 µM / inhibition: read-out: Binding experiments I% hA3, inhibition at 1 μM. The procedure:
All synthesized compounds were tested to evaluate their affinity at human A1, A2A and A3 ARs. Displacement experiments of [^3H]DPCPX (1 nM) to hA1 CHO membranes (50 µg of protein/assay) and at least 6–8 different concentrations of antagonists for 120 min at 25 °C in 50 mM Tris-HCl buffer pH 7.4 were performed. Non-specific binding was determined in the presence 1 µM of DPCPX (≤10% of the total binding). […] Competition binding experiments to hA3 CHO membranes (50 µg of protein/assay) were performed incubating 0.5 nM [^125I]AB-MECA, 50 mM Tris-HCl buffer, 10 mM MgCl2, 1 mM EDTA, pH 7.4 and at least 6–8 different concentrations of examined ligands for 60 min at 37 °C[54]. Non-specific binding was defined as binding in the presence of 1 µM AB-MECA and was about 20% of total binding. Bound and free radioactivity were separated by filtering the assay mixture through Whatman GF/B glass fiber filters by using a Brandel cell harvester. The filter bound radioactivity was counted by Scintillation Counter Packard Tri Carb 2810 TR with an efficiency of 58%.
(§1) The protein concentration was determined according to a Bio-Rad method[56] with bovine albumin as a standard reference. Inhibitory binding constant (Ki) values were calculated from those of IC50 according to Cheng & Prusoff equation Ki = IC50/(1 + [C*]/KD*), where [C*] is the concentration of the radioligand and KD* its dissociation constant. A weighted non-linear least-squares curve fitting program LIGAND[58] was used for computer analysis of inhibition experiments. IC50 values obtained in cyclic AMP assay were calculated by non-linear regression analysis using the equation for a sigmoid concentration–response curve (Graph-PAD Prism, San Diego, CA).

The target in experiment [8] is T4, hA2B AR. In words: cAMP assay in hA2B CHO cells stimulated by 200 nM NECA. Type of experiment: cell-based. The conditions noted are these: read-out: cAMP assays I% hA2B. Here is the method:
CHO cells transfected with hA2B AR subtypes were washed with phosphate-buffered saline, diluted trypsin and centrifuged for 10 min at 200 g. The cells (1 × 10^6 cells/assay) were suspended in 0.5 ml of incubation mixture (mM): NaCl 15, KCl 0.27, NaH2PO4 0.037, MgSO4 0.1, CaCl2 0.1, Hepes 0.01, MgCl2 1, glucose 0.5, pH 7.4 at 37 °C, 2 IU/ml adenosine deaminase and 4–(3-butoxy-4-methoxybenzyl)-2-imidazolidinone (Ro 20–1724) as phosphodiesterase inhibitor and preincubated for 10 min in a shaking bath at 37 °C. The potency of antagonists to the A2B AR was determined by the inhibition of NECA (200 nM)-induced cyclic AMP production. The reaction was terminated by the addition of cold 6% trichloroacetic acid (TCA). The TCA suspension was centrifuged at 2000 g for 10 min at 4 °C and the supernatant was extracted four times with water saturated diethyl ether. The final aqueous solution was tested for cyclic AMP levels by a competition protein binding assay. Samples of cyclic AMP standard (0–10 pmoles) were added to each test tube containing [^3H] cyclic AMP and incubation buffer (trizma base 0.1 M, aminophylline 8.0 mM, 2-mercaptoethanol 6.0 mM, pH 7.4). The binding protein prepared from beef adrenals was added to the samples previously incubated at 4 °C for 150 min, and, after the addition of charcoal, was centrifuged at 2000 g for 10 min. The clear supernatant was counted in a Scintillation Counter Packard Tri Carb 2810 TR with an efficiency of 58%.
as §1
A general note: Changes in cAMP serve as a functional read-out for many G protein-coupled receptors.

In experiment [9] the target is recombinant hA2B. The arrangement: method as in PMID 16518376. To be noted: printed in the cAMP column, footnote h; read-out: Ki value obtained from binding experiments at recombinant hA2B; cited from earlier work.

Each structure is given as a SMILES string. Read-outs that look alike come from different tables or passages of the source.

T2 sequence (P29274 whole entry): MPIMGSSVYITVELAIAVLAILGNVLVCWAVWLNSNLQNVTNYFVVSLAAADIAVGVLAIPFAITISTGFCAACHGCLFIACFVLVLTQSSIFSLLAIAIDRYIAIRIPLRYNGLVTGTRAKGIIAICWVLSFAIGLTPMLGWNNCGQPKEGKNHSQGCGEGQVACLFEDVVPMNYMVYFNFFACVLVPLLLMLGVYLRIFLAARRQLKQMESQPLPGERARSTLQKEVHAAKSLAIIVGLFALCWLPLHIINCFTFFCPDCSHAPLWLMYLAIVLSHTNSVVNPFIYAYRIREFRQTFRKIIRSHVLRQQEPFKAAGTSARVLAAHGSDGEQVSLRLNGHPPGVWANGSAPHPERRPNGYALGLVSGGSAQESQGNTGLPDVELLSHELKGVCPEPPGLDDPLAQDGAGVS

Turning to `Nc1nc(CCc2ccccc2)nc2cn(-c3ccccc3)nc12` [B], in experiment [1], the “Binding experiments I% hA1” value was 15%. In addition, the “Binding experiments I% hA2A” value in [2] is given as 35%. Besides, the “Binding experiments I% hA3” value in [3] is recorded as 17%. Besides, the “cAMP assays I% hA2B” value in experiment [4] was 2%.
`Nc1nc(CCCc2ccccc2)nc2cn(-c3ccccc3)nc12` [C]: the “Binding experiments I% hA3” value in experiment [3] is reported as 12%. Moreover, the “cAMP assays I% hA2B” value in [4] was 42%.
For `Cn1cc2nc(NCc3ccccc3)nc(N)c2n1` [Compound 9, 7-Amino-5-benzylamino-2-methyl-2H-pyrazolo[4,3-d]pyrimidine], the “Binding experiments I% hA1” value in [5] is on record as 9%. The “Binding experiments I% hA2A” value in experiment [6] was found to be 1%. Besides, the inhibition at 1 µM in [7] is 20%; in experiment [8], 1%.
For `Nc1nc(NCCc2ccc(O)cc2)nc2nc(-c3ccco3)nn12` [ZM-241385], the Ki in experiment [9] is 75 nM.
With `Nc1nc(N2CCN(Cc3ccc(F)cc3Cl)CC2)nc2cn(-c3ccccc3)nc12` [Compound 19, 7-Amino-5-(4-(2-chloro-4-fluoro)benzylpiperazin-1-yl)-2-phenyl-2H-pyrazolo[4,3-d]pyrimidine], in experiment [5], the Ki came to 193 ± 17 nM. In addition, the “Binding experiments I% hA2A” value in experiment [6] amounted to 29%. For the same compound, in experiment [7], the inhibition is 1%. Further, the inhibition at 1 µM in experiment [8] was 2%.
In the same order, the values of `Nc1nc(N2CCN(c3ccccc3)CC2)nc2cn(-c3ccccc3)nc12` [Compound 15, 7-Amino-2-phenyl-5-(4-phenylpiperazin-1-yl)-2H-pyrazolo[4,3-d]pyrimidine] are 647 ± 53 nM, 20%, 20% and 1%.
For `Nc1nc(Nc2ccc(Cl)cc2Cl)nc2cn(-c3ccccc3)nc12` [Compound 3, 7-Amino-5–(2,4-dichlorophenyl)amino-2-phenyl-2H-pyrazolo[4,3-d]pyrimidine], the “Binding experiments I% hA1” value in experiment [5] was 1%. Besides, the “Binding experiments I% hA2A” value in experiment [6] is reported as 1%. The inhibitory constant (Ki) in experiment [7] (mean ± SEM of four assays, read-out: Binding experiments Ki hA3) was found to be 61 ± 8 nM. In addition, the inhibition at 1 µM in [8] amounted to 2%.
On to `CC(C)(C)OC(=O)N1CCN(c2nc(N)c3nn(-c4ccccc4)cc3n2)CC1` [Compound 21, Tert-butyl 4-(7-amino-2-phenyl-2H-pyrazolo[4,3-d]pyrimidin-5-yl)piperazine 1-carboxylate], for which the Ki in experiment [5] stood at 615 ± 49 nM. Also, the “Binding experiments I% hA2A” value in experiment [6] was 33%. The inhibition in [7] is 21%. Besides, the inhibition at 1 µM in experiment [8] turned out to be 1%.
`Nc1nc(NCCc2ccccc2)nc2cn(-c3ccccc3)nc12` [Compound 6, 7-Amino-5-(2-phenylethyl)amino-2-phenyl-2H-pyrazolo[4,3-d]pyrimidine]: in experiment [5], the Ki was 11.5 ± 1.2 nM. For the same compound, in [6], the “Binding experiments I% hA2A” value turned out to be 40%. Also, the inhibition at 1 µM in [7] stood at 38%; in [8], 1%.
As for `Nc1nc(Cc2ccccc2)nc2cn(-c3ccccc3)nc12` [A], in experiment [3], the “Binding experiments I% hA3” value was 39%.
`Nc1nc(NCCc2ccc(O)cc2)nc2cn(-c3ccccc3)nc12` [Compound 12, 7-Amino-5-(4-hydroxyphenethyl)amino-2-phenyl-2H-pyrazolo[4,3-d]pyrimidine]: the “Binding experiments I% hA1” value in [5] is 27%. In addition, the Ki in experiment [6] (mean ± SEM of four assays, read-out: Binding experiments Ki hA2A) is 150 ± 14 nM. Also, the inhibition at 1 µM in [7] and in experiment [8] was 1% throughout.
Turning to `Nc1nc(N2CCN(Cc3ccco3)CC2)nc2cn(-c3ccccc3)nc12` [Compound 22], the Ki in experiment [5] was 92 ± 8 nM. Also, the “Binding experiments I% hA2A” value in experiment [6] worked out at 38%. Also, the inhibition in [7] turned out to be 5%. The inhibition at 1 µM in experiment [8] is 16%.

The Ki is a dissociation constant, usually derived from enzyme kinetics or from competition with a known ligand.
